Experimental data taken from ChEMBL document CHEMBL3108715, “Pan-histone demethylase inhibitors simultaneously targeting Jumonji C and lysine-specific demethylases display high anticancer activities” (J Med Chem, 2014).
Activity calls are given as the source filed them. No cut-off for these calls is given here.

Columns and labels:
HCT-116 [1] = assay: Inhibition of LSD1/JmjC in human HCT116 cells assessed as increase in H3K9me3 level at 50 uM by Western blotting analysis; type: cell-based
LNCaP [2] = assay: Inhibition of LSD1/JmjC in human LNCAP cells assessed as increase in H3K9me3 level at 50 uM by Western blotting analysis; type: cell-based
HCT-116 [3] = assay: Cytotoxicity against human HCT116 cells at 50 uM after 6 hrs; type: functional, cell-based
HCT-116 [4] = assay: Inhibition of LSD1/JmjC in human HCT116 cells assessed as increase in H3K4me2/3 level at 50 uM by Western blotting analysis; type: cell-based
HCT-116 [5] = assay: Induction of apoptosis in human HCT116 cells at 10 to 100 uM after 48 hrs by propidium iodide staining-based FACS analysis; type: functional, cell-based
LNCaP [6] = assay: Cytotoxicity against human LNCAP cells at 50 uM after 72 hrs; type: functional, cell-based
HCT-116 [7] = assay: Antimigratory activity against human HCT116 cells at 50 uM after 72 hrs; type: functional, cell-based
[8] = Induction of apoptosis in human MePR cells assessed as accumulation at pre-G1 phase at 50 uM after 24 hrs by propidium iodide staining-based FACS analysis (reference value: 8.4%); type: cell-based
LNCaP [9] = assay: Induction of apoptosis in human LNCAP cells at 10 to 100 uM after 48 hrs by propidium iodide staining-based FACS analysis; type: functional, cell-based
LNCaP [10] = assay: Inhibition of LSD1/JmjC in human LNCAP cells assessed as increase in H3K4me2/3 level at 50 uM by Western blotting analysis; type: cell-based

**Q.** Which results are given for `Cl.N[C@@H]1C[C@H]1c1ccc(NC(=O)c2ccc(O)c3ncccc23)cc1` (relative stereo)?
**A.** inhibition (HCT-116 [1]): Active; inhibition (LNCaP [2]): Active; Activity (HCT-116 [3]): Active; inhibition (HCT-116 [4]): Active; Activity (HCT-116 [5]): Active; Activity (LNCaP [6]): Active; Activity (HCT-116 [7]): inactive; Activity [8]: 4.2%; Activity (LNCaP [9]): Active; inhibition (LNCaP [10]): Active

**Q.** Which inhibition (HCT-116 [1]) does the source give for `COC(=O)c1ccnc(-c2cc(C(=O)Nc3ccc([C@@H]4C[C@H]4N)cc3)ccn2)c1.Cl` (relative stereo) here?
**A.** The inhibition was “Active”.

**Q.** What about the inhibition (LNCaP [2]) of the same compound?
**A.** Its inhibition is “Active”.

**Q.** What about the Activity (HCT-116 [3]) of the same compound?
**A.** The Activity was “Active”.

**Q.** And the inhibition (HCT-116 [4])?
**A.** Its inhibition is “Active”.

**Q.** And the Activity (HCT-116 [5])?
**A.** The Activity was “Active”.

**Q.** What about the Activity (LNCaP [6]) of the same compound?
**A.** Its Activity is “Active”.

**Q.** What about the Activity (HCT-116 [7]) of the same compound?
**A.** Its Activity is “Active”.

**Q.** What about the Activity [8] of the same compound?
**A.** The Activity was 12.8%.

**Q.** What about the Activity (LNCaP [9]) of the same compound?
**A.** Its Activity is “Active”.

**Q.** What about the inhibition (LNCaP [10]) of the same compound?
**A.** The inhibition was “Active”.
